Data from ChEMBL document CHEMBL1268895, “Synthesis of exotic polycycles such as cyclooctatrienes and fenestrenes with differential pro-apoptotic activities on human TRAIL-resistant metastatic cell lines” (Bioorg Med Chem Lett, 2010).

Legend:
[1] = tested on: THP-1; experiment: Induction of apoptosis in TRAIL-resistant human THP1 cells assessed as pro-apoptotic cells at 50 uM after 24 hrs by annexin-V staining; type: functional
[2] = tested on: SW-620; experiment: Induction of apoptosis in TRAIL-resistant human SW620 cells assessed as pro-apoptotic cells at 50 uM after 24 hrs by annexin-V staining; type: functional
[3] = tested on: THP-1; experiment: Induction of apoptosis in TRAIL-resistant human THP1 cells assessed as inhibition of caspase-8 activity; type: functional
[4] = tested on: THP-1; experiment: Induction of apoptosis in TRAIL-resistant human THP1 cells after 24 hrs by annexin-V staining; type: functional, cell-based; conditions: THP-1, 24 h

CCCCC1(CCCC)O[C@H]2C=C(CO)[C@]3(O)[C@@H]4OC(C)(C)O[C@@]45CCC[C@@H]4[C@@H]1[C@@H]2[C@@]453
Activity [1]: 15%
Activity [2]: 5%

CCCCCC1(CCCCC)O[C@H]2C=C(CO)[C@]3(O)[C@@H]4OC(C)(C)O[C@@]45CCC[C@@H]4[C@@H]1[C@@H]2[C@@]453
Activity [1]: 5%
Activity [2]: 5%

CC(C)CC1(CC(C)C)O[C@H]2C=C(CO)[C@]3(O)[C@@H]4OC(C)(C)O[C@@]45CCC[C@@H]4[C@@H]1[C@@H]2[C@@]453
Activity [1]: 83%
Activity [2]: 13%

CC1(C)O[C@@H]2[C@]3(CCC[C@@H]4[C@H]5CO[C@H]6C=C(CO)[C@@]2(O)[C@]43[C@@H]56)O1
Activity [1]: 94%
Activity [2]: 4%

CC1(C)O[C@H]2C3=C4[C@@H](CCCC[C@@]42O1)[C@H](C(C)(C)O)/C=C\C=C/3CO
Activity [1]: 2%
Activity [2]: 16%

CC1(C)O[C@H]2C3=C4[C@@H](CCCC[C@@]42O1)[C@H](C1(O)CCCC1)/C=C\C=C/3CO
Activity [1]: 2%
Activity [2]: 22%

CC1(C)O[C@H]2C3=C4[C@@H](CCCC[C@@]42O1)[C@H](C1(O)CCCCC1)/C=C\C=C/3CO
Activity [1]: 2%
Activity [2]: 17%

CC(C)CC(O)(CC(C)C)[C@@H]1/C=C\C=C(\CO)C2=C3[C@H]1CCCC[C@@]31OC(C)(C)O[C@@H]21
Activity [1]: 36%
Activity [2]: 68%
inhibition (INH) [3]: 90%

CCCCCC[C@@H]1/C=C\C=C(\CO)C2=C3[C@H]1CCCC[C@@]31OC(C)(C)O[C@@H]21
Activity [1]: 20%
Activity [2]: 70%
inhibition (INH) [3]: 90%

CC1(C)O[C@H]2C3=C4[C@@H](CCCC[C@@]42O1)[C@H](CCc1ccccc1)/C=C\C=C/3CO
Activity [1]: 10%
Activity [2]: 23%

CC1(C)O[C@H]2C3=C4[C@@H](CCC[C@@]42O1)[C@H](C(C)(C)O)/C=C\C=C/3CO
Activity [1]: 2%
Activity [2]: 12%

CC1(C)O[C@@H]2C3=C(/C(CO)=C\C=C/[C@@H](C4(O)CCCC4)[C@@H]3c3ccccc3)[C@@H]2O1
Activity [1]: 3%
Activity [2]: 12%

CC1(C)O[C@@H]2C3=C(/C(CO)=C\C=C/[C@@H](C4(O)CCCCC4)[C@@H]3c3ccccc3)[C@@H]2O1
Activity [1]: 3%
Activity [2]: 10%

CCCCCC[C@@H]1/C=C\C=C(\CO)C2=C([C@H]3OC(C)(C)O[C@@H]23)[C@H]1c1ccccc1
Activity [1]: 97%
Activity [2]: 70%
EC50 [4]: 52.9 µM

CC1(C)O[C@@H]2[C@]3(CCC[C@@H]4[C@@H]5[C@H]6[C@H](C=C(CO)[C@@]2(O)[C@]643)OC5(C)C)O1
Activity [1]: 29%
Activity [2]: 4%

CC1(C)O[C@@H]2C3=C(/C(CO)=C\C=C/[C@@H](C(C)(C)O)[C@@H]3c3ccccc3)[C@@H]2O1 (relative stereo)
Activity [1]: 2%
Activity [2]: 15%

CC(C)CC(O)(CC(C)C)[C@@H]1/C=C\C=C(\CO)C2=C([C@H]3OC(C)(C)O[C@@H]23)[C@H]1c1ccccc1 (relative stereo)
Activity [1]: 97%
Activity [2]: 66%
EC50 [4]: 32.4 µM

CC1(C)O[C@@H]2C3=C(/C(CO)=C\C=C/[C@@H](CCc4ccccc4)[C@@H]3c3ccccc3)[C@@H]2O1 (relative stereo)
Activity [1]: 98%
Activity [2]: 58%
EC50 [4]: 49.3 µM

CC1=C(O)C(=O)C=C2C1=CC=C1[C@@]2(C)CC[C@@]2(C)[C@@H]3C[C@](C)(C(=O)O)CC[C@]3(C)CC[C@]12C [CELASTROL]
Activity [1]: 99%
Activity [2]: 99%
EC50 [4]: 15 µM
inhibition (INH) [3]: 90%
